Test results taken from patent US20160194308A1, “NOVEL PIPERIDINYL BENZOIMIDAZOLE DERIVATIVES AS MPGES-1 INHIBITORS” (NovaSAID AB, priority 2013, published 2016).

Tests used:
[1] = target: T1, hERG potassium currents (CHO-K1 cells stably transfected with hERG) (Homo sapiens, UniProt Q12809); experiment: Automated whole-cell patch-clamp hERG assay; assay type: cell-based; conditions: for IC50: Qpatch, tail current, CHO-K1 cells, 0.39 μM to 100 μM cumulatively; for IC50 ratio hERG/mPGEs-1: ratio of hERG IC50 to human mPGEs-1 IC50
T1 construct: expressed in transfected cells; host or cells: CHO-K1 cells (American Tissue Culture Collection), stably transfected
T1 sequence (Q12809 whole entry): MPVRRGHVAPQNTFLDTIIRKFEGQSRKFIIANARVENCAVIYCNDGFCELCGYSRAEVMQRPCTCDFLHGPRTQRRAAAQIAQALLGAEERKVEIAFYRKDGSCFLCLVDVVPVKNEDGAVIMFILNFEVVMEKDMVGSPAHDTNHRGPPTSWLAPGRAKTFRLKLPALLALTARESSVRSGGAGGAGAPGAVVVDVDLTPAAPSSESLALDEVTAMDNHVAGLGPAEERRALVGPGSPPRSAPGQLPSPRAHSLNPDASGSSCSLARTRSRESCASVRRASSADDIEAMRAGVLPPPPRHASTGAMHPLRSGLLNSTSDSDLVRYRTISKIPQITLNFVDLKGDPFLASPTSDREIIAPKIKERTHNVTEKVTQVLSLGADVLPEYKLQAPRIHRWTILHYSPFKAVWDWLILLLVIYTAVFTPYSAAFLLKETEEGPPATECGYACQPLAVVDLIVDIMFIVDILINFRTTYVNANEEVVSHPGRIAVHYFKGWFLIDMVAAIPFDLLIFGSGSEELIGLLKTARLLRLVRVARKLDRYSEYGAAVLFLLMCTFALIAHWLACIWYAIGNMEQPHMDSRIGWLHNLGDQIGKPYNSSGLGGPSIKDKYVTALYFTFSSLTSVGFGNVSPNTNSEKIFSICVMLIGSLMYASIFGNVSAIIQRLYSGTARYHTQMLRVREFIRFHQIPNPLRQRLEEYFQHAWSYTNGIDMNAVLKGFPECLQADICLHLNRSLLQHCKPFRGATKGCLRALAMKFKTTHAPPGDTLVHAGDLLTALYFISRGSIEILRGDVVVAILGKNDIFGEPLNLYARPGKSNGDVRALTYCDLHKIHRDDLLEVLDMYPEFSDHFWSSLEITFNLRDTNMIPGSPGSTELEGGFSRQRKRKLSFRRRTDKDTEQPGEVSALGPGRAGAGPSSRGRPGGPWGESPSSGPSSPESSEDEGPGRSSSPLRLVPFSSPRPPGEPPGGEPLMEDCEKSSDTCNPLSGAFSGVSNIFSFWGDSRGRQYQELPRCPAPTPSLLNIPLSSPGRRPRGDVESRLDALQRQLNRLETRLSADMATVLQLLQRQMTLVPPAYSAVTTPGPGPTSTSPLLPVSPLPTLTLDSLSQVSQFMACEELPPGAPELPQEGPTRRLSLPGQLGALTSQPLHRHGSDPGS
Method: The automated whole-cell patch-clamp hERG assay uses CHO-K1 cells obtained from American Tissue Culture Collection. hERG cDNA (GenBank sequence NM_000238) was subcloned into pSI vector (Promega). The CHO-K1 cells were co-transfected with this construct and pPUR (containing puromycin selective marker, BD Bioscience). After selection in puromycin for 10 days, single colonies were selected and verified with hERG potassium currents. The stably transfected cells were cultured in F-12 Kaighn's Nutrient Mixture medium (Invitrogen)+10% FBS at 37 C for 1-3 days. Subsequently the cells were harvested by trypsination and kept in serum free medium at room temperature before recording. The cells were washed and resuspended in extracellular solution before being applied to the patch clamp sites.
After whole cell configuration was achieved, the cell was held at −80 mV. A 50 millisecond pulse to −40 mV was delivered to measure the leaking current, which was subtracted from the tail current on-line. Then the cell was de-polarized to +20 mV for 2 seconds, followed by a second pulse to −40 mV to reveal hERG tail current. The paradigm was delivered once every 5 seconds to monitor the current amplitude. The extracellular solution (control) was applied first and the cell was stabilized in extracellular solution for 5 minutes. Then the test compound was applied from low concentrations (0.39 μM) to high concentrations (100 μM) cumulatively. The cell was incubated with each test concentration for 5 minutes. During the incubation, the cell was repeatedly stimulated using the voltage protocol described above, and the tail current amplitude was continuously monitored.
Data were acquired by Qpatch (Sophion Bioscience) and the degree of inhibition (%) was obtained by measuring the tail current amplitude before and after test compound incubation (the difference in current was normalized to control and multiplied by 100 to obtain the percent of inhibition). Concentration (log) response curves were fitted to a logistic equation (three parameters assuming complete block of the current at very high test compound concentrations) to generate estimates of the 50% inhibitory concentration (IC50). The concentration-response relationship of each compound was constructed from the percentage reductions of current amplitude by sequential concentrations (0.39 μM to 100 μM).
Further background information on the hERG assay is available in Expert Opin. Ther. Targets (2006) 10(2):319-327.

[2] = target: T2, recombinant membrane-bound human mPGEs-1 (Homo sapiens, UniProt O14684); experiment: Thiobarbituric acid assay (TBA-MDA assay), inhibition of mPGEs-1; assay type: biochemical; conditions: arithmetic mean values, human mPGEs-1 TBA-MDA assay
T2 sequence (O14684 1-152): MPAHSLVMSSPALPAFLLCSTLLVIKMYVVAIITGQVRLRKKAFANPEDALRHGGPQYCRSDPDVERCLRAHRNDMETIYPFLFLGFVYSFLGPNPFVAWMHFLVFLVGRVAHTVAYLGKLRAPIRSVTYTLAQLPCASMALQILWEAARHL
From the text: Malondialdehyde is a product of lipid peroxidation and reacts with thiobarbituric acid forming a red product that absorbs light at 535 nm (W. G. Niehaus, Jr and B. Samuelsson, Eur. J. Biochem 6, 126 (1968)) and is also fluorescent. The extinction coefficient of the TBA-MDA conjugate is 1.56×10^5 M^−1 cm^−1 (E. D. Wills. Biochem. J. 113, 315 (1969). The method used for detection of inhibition of mPGEs-1 is based on the detection of the amount of remaining PGH2. This method was described more than 20 years ago by Basevich et al (Bioorg. Khim. 1983, 9(5), 658-665).
The assay used was a modified variant and used citric acid instead of the TCA-TBA-HCl reagent described in the original assay. In this assay, recombinant membrane-bound human mPGEs-1 was incubated with PGH2. The reaction was stopped by adding citric acid to a final pH 3 and a large excess of iron(II) chloride (20 mM) to convert any remaining PGH2 into MDA and 12-HHT. TBA reagent was finally added (0.67%) and the samples were heated at 80° C. for 30 min. The fluorescence of the conjugate was measured at 485/545 nm.
The product of mPGEs-1 (PGE2) was not measured directly in this assay, but rather the remaining substrate (PGH2) indirectly by adding FeCl2 that converts PGH2 into MDA and 12-HHT. As a positive control, a known mPGEs-1 inhibitor, MK-886, was used and the inhibition afforded by the new inhibitors was compared with that obtained from MK-886.

Row | SMILES | IC50 [2] [nM] | IC50 [1] [nM] | IC50 ratio hERG/mPGEs-1 [1]
1 | Cc1cc2c(cc1Cl)nc(N1CCC(C(=O)N[C@@H]3CCOC3)CC1)n2-c1ccc(C(F)(F)F)cn1 [Comparative Example 3, (R)-1-(5-chloro-6-methyl-1-(5-(trifluoromethyl)pyridin-2-yl)-1H-benzo[d]imidazol-2-yl)-N-(tetrahydrofuran-3-yl)-piperidine-4-carboxamide] |  | 19000 | 328
2 | Cc1cc2nc(N3CCC(C(=O)N[C@@H]4CCOC4)CC3)n(-c3ccc(C(F)(F)F)cn3)c2cc1Cl [Comparative Example 4, (R)-1-(6-chloro-5-methyl-1-(5-(trifluoromethyl)pyridin-2-yl)-1H-benzo[d]imidazol-2-yl)-N-(tetrahydrofuran-3-yl)-piperidine-4-carboxamide] |  | 14000 | 304

The next lines start with results.

Row | IC50 [2] [nM] | SMILES | IC50 [1] [nM] | IC50 ratio hERG/mPGEs-1 [1]
3 | 32 | Cc1cc2nc(N3CCC(C(=O)N[C@H]4COC[C@@H]4O)CC3)n(-c3cccc(C(F)(F)F)n3)c2cc1Cl [Example 2, 1-(6-chloro-5-methyl-1-(6-(trifluoromethyl)pyridin-2-yl)-1H-benzo[d]imidazol-2-yl)-N-((3S,4R)-4-hydroxytetrahydrofuran-3-yl)piperidine-4-carboxamide] | > 100000 | >3125
4 | 24 | O=C(N[C@@H]1CCOC1)C1CCN(c2nc3cc(Cl)c(Cl)cc3n2-c2cccc(C(F)(F)F)n2)CC1 [Comparative Example 5, (R)-1-(5,6-dichloro-1-(6-(trifluoromethyl)pyridin-2-yl)-1H-benzo[d]imidazol-2-yl)-N-(tetrahydrofuran-3-yl)piperidine-4-carboxamide] | 2100 | 88
5 | 38 | Cc1cc2c(cc1Cl)nc(N1CCC(C(=O)N[C@H]3COC[C@@H]3O)CC1)n2-c1cccc(C(F)(F)F)n1 [Example 1, 1-(5-chloro-6-methyl-1-(6-(trifluoromethyl)pyridin-2-yl)-1H-benzo[d]imidazol-2-yl)-N-((3S,4R)-4-hydroxytetrahydrofuran-3-yl)piperidine-4-carboxamide] | 38000 | 1000
